Data taken from patent US20120015919A1, “THERAPIES FOR TREATING CANCER USING COMBINATIONS OF COX-2 INHIBITORS AND AROMATASE INHIBITORS OR COMBINATIONS OF COX-2 INHIBITORS AND ESTROGEN RECEPTOR ANTAGONISTS” (Tragara Pharmaceuticals, Inc., priority 2007, published 2012).

Settings: human, in vivo

CCOc1ccc(-c2cc(C)cn2-c2ccc(S(N)(=O)=O)cc2)cc1 [2-(4-ethoxyphenyl)-4-methyl-1-(4-sulfamoylphenyl)-pyrrole]
gastric or duodenal toxicity compared to placebo: no increase
